Results reported in patent publication US10668047B2, “Aziridine containing DNA alkylating agents” (priority 2015, dated 2020).
Where two headings read alike, the source gives them in different places.

System: H460 non-cell lung cancer human tumor cell line
Assay: In vitro human tumor cell line cytotoxicity (proliferation) assay, AlamarBlue
Type: cell-based
Protocol: IC50 values are reported in micromolar and result from exposure of compound at various concentrations for 2 hrs followed by a wash step and addition of fresh media followed by growth and cell viability staining and comparison to a media only treated control.
Specifically, exponentially growing cells are seeded at a density of 4×10^3 cells per well in a 96 well plate and incubated at 37° C. in 5% CO2, 95% air and 100% relative humidity for 24 hours prior to addition of test compounds. Compounds are solubilized in 100% DMSO at 200 times the desired final test concentration. At the time of drug addition, compounds are further diluted to 4 times the desired final concentration with complete medium. Aliquots of 50 μl of compound at specified concentrations are added to microtiter wells already containing 150 μl of medium, resulting in the final drug concentration reported. After drug addition, the plates are incubated for an additional 2 hours at 37° C., 5% CO2, 95% air, and 100% relative humidity, then the drug is washed off and fresh medium is added and the plates are incubated for addition 70 hrs at 37° C., 5% CO2, 95% air and 100% relative humidity. At the end of this incubation, the viable cells are quantified using the AlamarBlue assay. The drug concentration resulting in growth inhibition of 50% (IC50) is calculated using Prism software (Irvine, Calif.), and the results are listed in the table.

[1] = Homo sapiens, NCI-H460, H460 cells, under air, 2 hrs exposure, wash, then 70 hrs growth, read-out: IC50 (air)
[2] = Homo sapiens, NCI-H460, H460 cells, under nitrogen, 2 hrs exposure, wash, then 70 hrs growth, read-out: IC50 (N2)
[3] = H460 cells, under air, 2 hrs exposure, wash, then 70 hrs growth, read-out: IC50 (air)
[4] = H460 cells, under nitrogen, 2 hrs exposure, wash, then 70 hrs growth, read-out: IC50 (N2)
[5] = Homo sapiens, NCI-H460, read-out: IC50 (N2), H460 cells, under nitrogen, 2 hrs exposure, wash, then 70 hrs growth
[6] = Homo sapiens, NCI-H460, read-out: IC50 (air), H460 cells, under air, 2 hrs exposure, wash, then 70 hrs growth

| Compound | IC50 [1] [nM] | IC50 [2] [nM] | other results |
| --- | --- | --- | --- |
| Cn1c([N+](=O)[O-])cnc1C(OP(=O)(N1CC1)N1CC1)C(c1ccccc1)c1ccccc1 (centres unmarked) [compound 2640] | 83000 | 1100 |  |
| O=[N+]([O-])c1ccc(C(CCO)OP(=O)(N2CC2)N2CC2)cc1 (centres unmarked) [compound 2714] | 94000 | 500 |  |
| CC(OP(=O)(N1CC1)N1CC1)c1ccc([N+](=O)[O-])c(-n2ccnn2)c1 (centres unmarked) [compound 2772] | 26000 | 50 |  |
| CC(OP(=O)(N1CC1)N1CC1)c1cc(-n2cnc3ccccc32)c([N+](=O)[O-])cc1F (centres unmarked) [compound 2744] | 2700 | 50 |  |
| Cn1c([N+](=O)[O-])cnc1C(OP(=O)(N1CC1)N1CC1)C(C)(C)C (centres unmarked) [compound 2535] | 500000 | 26000 |  |
| Cn1c([N+](=O)[O-])cnc1C(Cc1ccccc1)OP(=O)(N1CC1)N1CC1 (centres unmarked) [compound 2591] | 19000 | 100 |  |
| CC(OP(=O)(N1CC1)N1CC1)c1ccc([N+](=O)[O-])o1 (centres unmarked) [compound 2138] | 300 | 6 |  |
| COc1cc([N+](=O)[O-])ccc1COP(=O)(N1CC1)N1CC1 [compound 2554] | 3000 | 100 |  |
| Cn1c([N+](=O)[O-])nc(-c2sc(Br)c(Br)c2Br)c1COP(=O)(N1CC1)N1CC1 [compound 2523] | 400 | 20 |  |
| COc1ccc(C(C)OP(=O)(N2CC2)N2CC2)c([N+](=O)[O-])c1 (centres unmarked) [compound 2616] | 17000 | 3700 |  |
| CC(OP(=O)(N1CC1)N1CC1)c1ccc([N+](=O)[O-])c(-n2cnc3ccccc32)c1 (centres unmarked) [compound 2737] | 21000 | 200 |  |
| CCc1nc([N+](=O)[O-])n(C)c1COP(=O)(N1CC1)N1CC1 [compound 2119] | 900 | 30 |  |
| CC(OP(=O)(N1CC1)N1CC1)c1ccc([N+](=O)[O-])cc1F (centres unmarked) [compound 2706] | 14000 | 30 |  |
| C=CCCn1c([N+](=O)[O-])cnc1COP(=O)(N1CC1)N1CC1 [compound 2582] | 18000 | 100 |  |
| CCCCCCCC/C=C/CCCCCCCC(=O)N(C)Cc1nc([N+](=O)[O-])n(C)c1COP(=O)(N1CC1)N1CC1 [compound 2334] | 140 | 9 |  |
| CC(C)C(OP(=O)(N1CC1)N1CC1)c1ncc([N+](=O)[O-])n1C (centres unmarked) [compound 2567] |  |  | IC50 [3]: 270000 nM; IC50 [4]: 300 nM |
| CC(=O)OCC(OP(=O)(N1CC1)N1CC1)c1ccc([N+](=O)[O-])cc1 (centres unmarked) [compound 2686] | 79000 | 3100 |  |
| CC(OP(=O)(N1CC1)N1CC1)c1ccc([N+](=O)[O-])c(O)c1 (centres unmarked) [compound 2621] | 39000 | 300 |  |
| CC(OP(=O)(N1CC1)N1CC1)c1ccc([N+](=O)[O-])c(N2CCC(c3ccccc3)CC2)c1 (centres unmarked) [compound 2750] | 23000 | 2400 |  |
| CC(OP(=O)(N1CC1)N1CC1)c1ccc([N+](=O)[O-])cc1 (centres unmarked) [compound 2537] |  |  | IC50 [5]: 300 nM; IC50 [6]: 53000 nM |

| Compound | IC50 [1] [nM] | IC50 [2] [nM] | other results |
| --- | --- | --- | --- |
| O=[N+]([O-])c1ccc(COP(=O)(N2CC2)N2CC2)cc1 [compound 2550] | 29000 | 1800 |  |
| Cn1c([N+](=O)[O-])nc(CCN2CCOCC2)c1C(OP(=O)(N1CC1)N1CC1)C(F)(F)F (centres unmarked) [compound 2147] | 310000 | 1100 |  |
| CC(OP(=O)(N1CC1)N1CC1)c1ccc([N+](=O)[O-])c(Nc2ccccc2)c1 (centres unmarked) [compound 2693] | 1900 | 400 |  |
| CC(OP(=O)(N1CC1)N1CC1)c1ccc([N+](=O)[O-])c(-n2nnc3ccccc32)c1 (centres unmarked) [compound 2777] | 3400 | 10 |  |
| CC(OP(=O)(N1CC1)N1CC1)c1ccc([N+](=O)[O-])c(-c2cn(COC(=O)C(C)(C)C)nn2)c1 (centres unmarked) [compound 2793] | 4000 | 400 |  |
| CCN(CC)c1cc(C(C)OP(=O)(N2CC2)N2CC2)c(F)cc1[N+](=O)[O-] (centres unmarked) [compound 2730] | 22000 | 700 |  |
| CC(C)C(OP(=O)(N1CC1)N1CC1)c1ncc([N+](=O)[O-])n1C (centres unmarked) [compound 2518] | 420000 | 600 |  |
| CC(OP(=O)(N1CC1)N1CC1)c1cc(-n2cnc(CO)c2)c([N+](=O)[O-])cc1F (centres unmarked) [compound 2760] | 53000 | 2400 |  |
| O=[N+]([O-])c1ccc2c(c1)CCCC2OP(=O)(N1CC1)N1CC1 (centres unmarked) [compound 2675] | 3400 | 50 |  |
| CC(OP(=O)(N1CC1)N1CC1)c1ccc([N+](=O)[O-])c(-n2nccn2)c1 (centres unmarked) [compound 2771] | 14000 | 30 |  |
| CC(OP(=O)(N1CC1)N1CC1)c1ccc([N+](=O)[O-])c(-c2cccc(C(F)(F)F)c2)c1 (centres unmarked) [compound 2802] | 22000 | 2800 |  |
| COc1ccc(COP(=O)(N2CC2)N2CC2)c([N+](=O)[O-])c1 [compound 2589] | 9600 | 100 |  |
| CC(OP(=O)(N1CC1)N1CC1)c1ccc([N+](=O)[O-])c(-c2ccc(C(F)(F)F)cc2)c1 (centres unmarked) [compound 2774] | 3500 | 800 |  |
| CC(OP(=O)(N1CC1)N1CC1)c1ccccc1[N+](=O)[O-] (centres unmarked) [compound 2547] | 320000 | 2600 |  |
| CC(OP(=O)(N1CC1)N1CC1)c1ccc([N+](=O)[O-])c(-n2ccnc2)c1 (centres unmarked) [compound 2803] |  |  | IC50 [3]: 150000 nM; IC50 [4]: 300 nM |
| CC(C)n1c([N+](=O)[O-])cnc1COP(=O)(N1CC1)N1CC1 [compound 2627] | 32000 | 500 |  |
| CC(OP(=O)(N1CC1)N1CC1)c1ccc([N+](=O)[O-])c(N2CCOCC2)c1 (centres unmarked) [compound 2695] | 130000 | 4200 |  |
| CCCCC(CCCC)C(OP(=O)(N1CC1)N1CC1)c1ncc([N+](=O)[O-])n1C (centres unmarked) [compound 2645] | 30000 | 1600 |  |
| CCC(OP(=O)(N1CC1)N1CC1)c1ccc([N+](=O)[O-])cc1 (centres unmarked) [compound 2681] | 28000 | 300 |  |
| CC(OP(=O)(N1CC1)N1CC1)c1ncc([N+](=O)[O-])n1C (centres unmarked) [compound 2501] | 21000 | 50 |  |

| Compound | IC50 [1] [nM] | IC50 [2] [nM] | other results |
| --- | --- | --- | --- |
| CC(C)C(OP(=O)(N1CC1)N1CC1)c1ncc([N+](=O)[O-])n1CCOC(C)(C)C (centres unmarked) [compound 2643] | 37000 | 600 |  |
| CC(OP(=O)(N1CC1)N1CC1)c1ccc([N+](=O)[O-])c(Nc2ccc([N+](=O)[O-])cc2)c1 (centres unmarked) [compound 2697] |  |  | IC50 [5]: 500 nM; IC50 [6]: 1500 nM |
| CC(C)(C)[Si](C)(C)OCCC(OP(=O)(N1CC1)N1CC1)c1ccc([N+](=O)[O-])cc1 (centres unmarked) [compound 2712] | 300 | 200 |  |
| Cn1c([N+](=O)[O-])cnc1C(OP(=O)(N1CC1)N1CC1)C1CCCCC1 (centres unmarked) [compound 2633] | 83000 | 300 |  |
| CC(OP(=O)(N1CC1)N1CC1)c1ccc([N+](=O)[O-])c(-c2ccccc2F)c1 (centres unmarked) [compound 2786] | 69000 | 2500 |  |
| CC(OP(=O)(N1CC1)N1CC1)c1ccc([N+](=O)[O-])c(-c2ccc(-c3ccccc3)cc2)c1 (centres unmarked) [compound 2790] | 4000 | 1800 |  |
| CC(OP(=O)(N1CC1)N1CC1)c1ccc([N+](=O)[O-])c(-n2ccnc2)c1 (centres unmarked) [compound 2703] |  |  | IC50 [3]: 99000 nM; IC50 [4]: 200 nM |
| Cn1c([N+](=O)[O-])cnc1COP(=O)(N1CC1)N1CC1 [compound 2136] | 24000 | 100 |  |
| O=[N+]([O-])c1cnc(COP(=O)(N2CC2)N2CC2)n1C1CCCC1 [compound 2635] | 13000 | 220 |  |
| CC(OP(=O)(N1CC1)N1CC1)c1ccc([N+](=O)[O-])c(N2CCC(O)CC2)c1 (centres unmarked) [compound 2752] | 270000 | 5700 |  |
| CC(OP(=O)(N1CC1)N1CC1)c1ncc([N+](=O)[O-])n1C (centres unmarked) [compound 2551] |  |  | IC50 [3]: 20000 nM; IC50 [4]: 100 nM |
| Cc1cc(C(C)OP(=O)(N2CC2)N2CC2)ccc1[N+](=O)[O-] (centres unmarked) [compound 2672] | 180000 | 3100 |  |
| CC(OP(=O)(N1CC1)N1CC1)c1ccc([N+](=O)[O-])c(-n2cnc([N+](=O)[O-])c2)c1 (centres unmarked) [compound 2728] |  |  | IC50 [5]: 200 nM; IC50 [6]: 22000 nM |
| Cn1c([N+](=O)[O-])cnc1C(OP(=O)(N1CC1)N1CC1)c1ccccc1 (centres unmarked) [compound 2542] | 3400 | 1500 |  |
| CCCC(OP(=O)(N1CC1)N1CC1)c1ncc([N+](=O)[O-])n1C (centres unmarked) [compound 2529] | 33000 | 200 |  |
| CC(OP(=O)(N1CC1)N1CC1)c1cc(N(C)CCN(C)C)c([N+](=O)[O-])cc1F (centres unmarked) [compound 2745] | 58000 | 300 |  |
| CC(OP(=O)(N1CC1)N1CC1)c1cc(-n2ccnc2)c([N+](=O)[O-])cc1F (centres unmarked) [compound 2731] | 13000 | 100 |  |
| CC(OP(=O)(N1CC1)N1CC1)c1ccc([N+](=O)[O-])c(-c2ccc(F)cc2)c1 (centres unmarked) [compound 2788] | 22000 | 1300 |  |
